Data: patent US10004701B2, “Methods and compositions for treating infection” (UNIVERSITY OF ROCHESTER, priority 2012, dated 2018)
Where two headings read alike, the source gives them in different places.

Key:
Assay in all cases: AK assay 384-well format, Prestwick library screening
K. pneumoniae = format: cell-based, Klebsiella pneumoniae; conditions: 50 μM final drug concentration; for fold induction at 50 µM: Klebsiella pneumoniae, 3 h
[1] = test system: S. aureus strain USA300-0114; format: cell-based, Staphylococcus aureus; conditions: 50 μM final drug concentration; for fold induction at 50 µM: Staphylococcus aureus, USA300, 3 h
E. faecium = format: cell-based, Enterococcus faecium; conditions: 50 μM final drug concentration; for fold induction at 50 µM: Enterococcus faecium, 3 h
E. coli = format: cell-based, Escherichia coli; conditions: 50 μM final drug concentration; for fold induction at 50 µM: Escherichia coli, 3 h
P. aeruginosa = format: cell-based, Pseudomonas aeruginosa; conditions: 50 μM final drug concentration; for fold induction at 50 µM: Pseudomonas aeruginosa, 3 h
E. cloacae = format: cell-based, Enterobacter cloacae; conditions: 50 μM final drug concentration; for fold induction at 50 µM: Enterobacter cloacae, 3 h
[2] = test system: A. baumannii strain 98-37-09; format: cell-based, Acinetobacter baumannii; conditions: 50 μM final drug concentration; for fold induction at 50 µM: Acinetobacter baumannii, 983709, 3 h
[3] = planktonic, cutoff for positive-scoring molecules 3-fold increase, read-out: AK-based Prestwick Library Screening Results, K. pneumoniae (fold increase in extracellular AK activity)
[4] = planktonic, cutoff for positive-scoring molecules 3-fold increase, read-out: AK-based Prestwick Library Screening Results, S. aureus (fold increase in extracellular AK activity)
[5] = planktonic, cutoff for positive-scoring molecules 3-fold increase, read-out: AK-based Prestwick Library Screening Results, E. faecium (fold increase in extracellular AK activity)
[6] = planktonic, cutoff for positive-scoring molecules 3-fold increase, read-out: AK-based Prestwick Library Screening Results, E. coli (fold increase in extracellular AK activity)
[7] = planktonic, cutoff for positive-scoring molecules 3-fold increase, read-out: AK-based Prestwick Library Screening Results, P. aeruginosa (fold increase in extracellular AK activity)
[8] = planktonic, cutoff for positive-scoring molecules 3-fold increase, read-out: AK-based Prestwick Library Screening Results, E. cloacae (fold increase in extracellular AK activity)
[9] = planktonic, cutoff for positive-scoring molecules 3-fold increase, read-out: AK-based Prestwick Library Screening Results, A. baumannii (fold increase in extracellular AK activity)
[10] = cutoff for positive-scoring molecules 3-fold increase, read-out: AK-based Prestwick Library Screening Results, K. pneumoniae (fold increase in extracellular AK activity)
[11] = cutoff for positive-scoring molecules 3-fold increase, read-out: AK-based Prestwick Library Screening Results, S. aureus (fold increase in extracellular AK activity)
[12] = cutoff for positive-scoring molecules 3-fold increase, read-out: AK-based Prestwick Library Screening Results, E. faecium (fold increase in extracellular AK activity)
[13] = cutoff for positive-scoring molecules 3-fold increase, read-out: AK-based Prestwick Library Screening Results, E. coli (fold increase in extracellular AK activity)
[14] = cutoff for positive-scoring molecules 3-fold increase, read-out: AK-based Prestwick Library Screening Results, P. aeruginosa (fold increase in extracellular AK activity)
[15] = cutoff for positive-scoring molecules 3-fold increase, read-out: AK-based Prestwick Library Screening Results, E. cloacae (fold increase in extracellular AK activity)
[16] = cutoff for positive-scoring molecules 3-fold increase, read-out: AK-based Prestwick Library Screening Results, A. baumannii (fold increase in extracellular AK activity)
[17] = planktonic, cutoff for positive 3-fold increase

## COc1cc(NS(=O)(=O)c2ccc(N)cc2)nc(OC)n1 [Sulfadimethoxine]
K. pneumoniae; [3]
  fold induction at 50 µM: 0.5
[1]; [4]
  fold induction at 50 µM: 0.5
E. faecium; [5]
  fold induction at 50 µM: 0.9
E. coli; [6]
  fold induction at 50 µM: 0.6
P. aeruginosa; [7]
  fold induction at 50 µM: 0.4
E. cloacae; [8]
  fold induction at 50 µM: 0.4
[2]; [9]
  fold induction at 50 µM: 0.9

## CC1CCc2c(N3CCC(O)CC3)c(F)cc3c(=O)c(C(=O)O)cn1c23 (stereo not shown) [Nadifloxacin]
K. pneumoniae; planktonic K. pneumoniae, positive cutoff 3-fold increase, read-out: AK-based Prestwick library screening result, K. pneumoniae (fold increase in extracellular AK activity)
  fold induction at 50 µM: 5.2
[1]; planktonic S. aureus, positive cutoff 3-fold increase, read-out: AK-based Prestwick library screening result, S. aureus (fold increase in extracellular AK activity)
  fold induction at 50 µM: 4.3
E. faecium; planktonic E. faecium, positive cutoff 3-fold increase, read-out: AK-based Prestwick library screening result, E. faecium (fold increase in extracellular AK activity)
  fold induction at 50 µM: 2.8
E. coli; planktonic E. coli, positive cutoff 3-fold increase, read-out: AK-based Prestwick library screening result, E. coli (fold increase in extracellular AK activity)
  fold induction at 50 µM: 13.4
P. aeruginosa; planktonic P. aeruginosa, positive cutoff 3-fold increase, read-out: AK-based Prestwick library screening result, P. aeruginosa (fold increase in extracellular AK activity)
  fold induction at 50 µM: 17.7
E. cloacae; planktonic E. cloacae, positive cutoff 3-fold increase, read-out: AK-based Prestwick library screening result, E. cloacae (fold increase in extracellular AK activity)
  fold induction at 50 µM: 1.7
[2]; planktonic A. baumannii, positive cutoff 3-fold increase, read-out: AK-based Prestwick library screening result, A. baumannii (fold increase in extracellular AK activity)
  fold induction at 50 µM: 2.9

## Lycorine hydrochloride
K. pneumoniae; planktonic, […]
  AK-based Prestwick Library Screening Results, K. pneumoniae (fold increase in extracellular AK activity): 0.8
[1]; planktonic, […]
  AK-based Prestwick Library Screening Results, S. aureus (fold increase in extracellular AK activity): 1.4
E. faecium; planktonic, […]
  AK-based Prestwick Library Screening Results, E. faecium (fold increase in extracellular AK activity): 1.0
E. coli; planktonic, […]
  AK-based Prestwick Library Screening Results, E. coli (fold increase in extracellular AK activity): 1.0
P. aeruginosa; planktonic, […]
  AK-based Prestwick Library Screening Results, P. aeruginosa (fold increase in extracellular AK activity): 1.1
E. cloacae; planktonic, […]
  AK-based Prestwick Library Screening Results, E. cloacae (fold increase in extracellular AK activity): 1.5
[2]; planktonic, […]
  AK-based Prestwick Library Screening Results, A. baumannii (fold increase in extracellular AK activity): 1.0

## COc1ccccc1OCC(O)CO (stereo not shown) [Guaifenesin]
K. pneumoniae; […], read-out: AK-based Prestwick Library Screening Results, K. pneumoniae (fold increase in extracellular AK activity)
  fold induction at 50 µM: 0.8
[1]; […], read-out: AK-based Prestwick Library Screening Results, S. aureus (fold increase in extracellular AK activity)
  fold induction at 50 µM: 1.2
E. faecium; […], read-out: AK-based Prestwick Library Screening Results, E. faecium (fold increase in extracellular AK activity)
  fold induction at 50 µM: 1
E. coli; […], read-out: AK-based Prestwick Library Screening Results, E. coli (fold increase in extracellular AK activity)
  fold induction at 50 µM: 1.1
P. aeruginosa; […], read-out: AK-based Prestwick Library Screening Results, P. aeruginosa (fold increase in extracellular AK activity)
  fold induction at 50 µM: 1.1
E. cloacae; […], read-out: AK-based Prestwick Library Screening Results, E. cloacae (fold increase in extracellular AK activity)
  fold induction at 50 µM: 1.6
[2]; […], read-out: AK-based Prestwick Library Screening Results, A. baumannii (fold increase in extracellular AK activity)
  fold induction at 50 µM: 1

## CC(=O)N[C@@H](CC(C)C)C(=O)O [N-Acetyl-L-leucine]
K. pneumoniae; [3]
  fold induction at 50 µM: 0.6
[1]; [4]
  fold induction at 50 µM: 0.7
E. faecium; [5]
  fold induction at 50 µM: 0.9
E. coli; [6]
  fold induction at 50 µM: 0.7
P. aeruginosa; [7]
  fold induction at 50 µM: 0.7
E. cloacae; [8]
  fold induction at 50 µM: 0.9
[2]; [9]
  fold induction at 50 µM: 0.7

## COc1cc(CNC(=O)CCCC/C=C/C(C)C)ccc1O [Capsaicin]
K. pneumoniae; [10]
  fold induction at 50 µM: 1
[1]; [11]
  fold induction at 50 µM: 1.2
E. faecium; [12]
  fold induction at 50 µM: 1.1
E. coli; [13]
  fold induction at 50 µM: 1.3
P. aeruginosa; [14]
  fold induction at 50 µM: 1.1
E. cloacae; [15]
  fold induction at 50 µM: 1.5
[2]; [16]
  fold induction at 50 µM: 1.2

## CCOc1cc(CC(=O)N[C@@H](CC(C)C)c2ccccc2N2CCCCC2)ccc1C(=O)O [Repaglinide]
K. pneumoniae; [10]
  fold induction at 50 µM: 0.4
[1]; [11]
  fold induction at 50 µM: 0.3
E. faecium; [12]
  fold induction at 50 µM: 0.9
E. coli; [13]
  fold induction at 50 µM: 0.4
P. aeruginosa; [14]
  fold induction at 50 µM: 0.4
E. cloacae; [15]
  fold induction at 50 µM: 0.4
[2]; [16]
  fold induction at 50 µM: 0.4

## CO[C@@]1(NC(=O)C2SC(=C(C(N)=O)C(=O)O)S2)C(=O)N2C(C(=O)O)=C(CSc3nnnn3C)CS[C@@H]21 (stereo partly shown) [Cefotetan]
K. pneumoniae; planktonic, cutoff for positive 3-fold increase, read-out: AK-based Prestwick Library Screening Results, K. pneumoniae (fold increase in extracellular AK activity)
  fold induction at 50 µM: 8.4
[1]; planktonic, cutoff for positive 3-fold increase, read-out: AK-based Prestwick Library Screening Results, S. aureus (fold increase in extracellular AK activity)
  fold induction at 50 µM: 2.5
E. faecium; planktonic, cutoff for positive 3-fold increase, read-out: AK-based Prestwick Library Screening Results, E. faecium (fold increase in extracellular AK activity)
  fold induction at 50 µM: 1.2
E. coli; planktonic, cutoff for positive 3-fold increase, read-out: AK-based Prestwick Library Screening Results, E. coli (fold increase in extracellular AK activity)
  fold induction at 50 µM: 22.1
P. aeruginosa; planktonic, cutoff for positive 3-fold increase, read-out: AK-based Prestwick Library Screening Results, P. aeruginosa (fold increase in extracellular AK activity)
  fold induction at 50 µM: 1.2
E. cloacae; planktonic, cutoff for positive 3-fold increase, read-out: AK-based Prestwick Library Screening Results, E. cloacae (fold increase in extracellular AK activity)
  fold induction at 50 µM: 25.3
[2]; planktonic, cutoff for positive 3-fold increase, read-out: AK-based Prestwick Library Screening Results, A. baumannii (fold increase in extracellular AK activity)
  fold induction at 50 µM: 2

## CCN1C[C@]2(C)CC[C@H](O)[C@]34C1[C@@H](C[C@H]23)[C@@]1(O)C[C@H](OC)[C@H]2C[C@@H]4[C@@H]1[C@H]2O [Karakoline]
K. pneumoniae; planktonic, […], read-out: AK-based Prestwick Library Screening Results, K. pneumoniae (fold increase in extracellular AK activity)
  fold induction at 50 µM: 0.9
[1]; planktonic, […], read-out: AK-based Prestwick Library Screening Results, S. aureus (fold increase in extracellular AK activity)
  fold induction at 50 µM: 1.2
E. faecium; planktonic, […], read-out: AK-based Prestwick Library Screening Results, E. faecium (fold increase in extracellular AK activity)
  fold induction at 50 µM: 1
E. coli; planktonic, […], read-out: AK-based Prestwick Library Screening Results, E. coli (fold increase in extracellular AK activity)
  fold induction at 50 µM: 1
P. aeruginosa; planktonic, […], read-out: AK-based Prestwick Library Screening Results, P. aeruginosa (fold increase in extracellular AK activity)
  fold induction at 50 µM: 1.1
E. cloacae; planktonic, […], read-out: AK-based Prestwick Library Screening Results, E. cloacae (fold increase in extracellular AK activity)
  fold induction at 50 µM: 1.3
[2]; planktonic, […], read-out: AK-based Prestwick Library Screening Results, A. baumannii (fold increase in extracellular AK activity)
  fold induction at 50 µM: 1

## Eburnamonine (−)
K. pneumoniae; [17]
  AK-based Prestwick Library Screening Results, K. pneumoniae (fold increase in extracellular AK activity): 1.0
[1]; [17]
  AK-based Prestwick Library Screening Results, S. aureus (fold increase in extracellular AK activity): 1.0
E. faecium; [17]
  AK-based Prestwick Library Screening Results, E. faecium (fold increase in extracellular AK activity): 1.1
E. coli; [17]
  AK-based Prestwick Library Screening Results, E. coli (fold increase in extracellular AK activity): 1.2
P. aeruginosa; [17]
  AK-based Prestwick Library Screening Results, P. aeruginosa (fold increase in extracellular AK activity): 1.3
E. cloacae; [17]
  AK-based Prestwick Library Screening Results, E. cloacae (fold increase in extracellular AK activity): 1.4
[2]; [17]
  AK-based Prestwick Library Screening Results, A. baumannii (fold increase in extracellular AK activity): 1.1
